Consider 7 molecules from ChEMBL document CHEMBL2390897, “3-Anhydro-6-hydroxy-ophiobolin A, a new sesterterpene inhibiting the growth of methicillin-resistant Staphylococcus aureus and inducing the cell death by apoptosis on K562, from the phytopathogenic fungus Bipolaris oryzae” (Bioorg Med Chem Lett, 2013).

In brackets after ≈: the same amount, converted by molar mass. Activity calls are given as the source filed them. No cut-off for these calls is given here.

In general, IC50 refers to the concentration that gives 50% inhibition. The MIC is the lowest concentration found to suppress growth. Lower therefore signals inhibition by little substance.

One assay relates to HepG2. Nature of the assay: Cytotoxicity against human HepG2 cells after 48 hrs by MTT assay. It counts as functional, cell-based. The following applies: HepG2, 48 h. On the technique in general: Tetrazolium assays rely on reduction of a dye to a coloured formazan, in cell work by metabolically active cells.
Assay [1] deals with K562. Nature of the assay: Induction of apoptosis in human K562 cells assessed as viable cells after 3 hrs using annexin-V-FITC and propidium iodide staining by flow cytometry (reference value: 93.69%). The assay is classed as functional, cell-based. On the technique in general: Flow cytometry measures light scatter and fluorescence of single cells or particles in a stream.
For assay [2], the system named is K562. Briefly: Cytotoxicity against human K562 cells after 48 hrs by MTT assay. The following applies: K562, 48 h. The assay is classed as functional, cell-based.
For assay [3], the system named is K562. Briefly: Induction of apoptosis in human K562 cells assessed as cell survival at 1 ug/ml after 1 hr using annexin-V-FITC and propidium iodide staining by flow cytometry (reference value: 97.89%). It counts as functional. The following applies: K562, 1 h, read-out: Activity.
Assay [4] concerns K562. Briefly: Induction of apoptosis in human K562 cells assessed as cell survival at 0.5 ug/ml after 5 hrs using annexin-V-FITC and propidium iodide staining by flow cytometry (reference value: 97.96%). It counts as functional. The following applies: K562, 5 h, read-out: Activity.
Assay [5] concerns K562. Briefly: Induction of apoptosis in human K562 cells assessed as cell survival at 1 ug/ml after 4 hrs using annexin-V-FITC and propidium iodide staining by flow cytometry (reference value: 97.89%). The assay is classed as functional. The following applies: K562, 4 h, read-out: Activity.
The test system of assay [6] is K562. Briefly: Induction of apoptosis in human K562 cells assessed as viable cells at 1 ug/ml after 5 hrs using annexin-V-FITC and propidium iodide staining by flow cytometry (reference value: 99.86%). The following applies: K562, 5 h, read-out: Activity. The assay is classed as functional.
In assay [7] the test system is K562. Nature of the assay: Induction of apoptosis in human K562 cells assessed as cell survival at 4 ug/ml after 5 hrs using annexin-V-FITC and propidium iodide staining by flow cytometry (reference value: 97.96%). It counts as functional. The note with it: K562, 5 h, read-out: Activity.
The test system of assay [8] is K562. Briefly: Induction of apoptosis in human K562 cells assessed as viable cells at 2 ug/ml after 5 hrs using annexin-V-FITC and propidium iodide staining by flow cytometry (reference value: 99.86%). The note with it: K562, 5 h, read-out: Activity. The assay is classed as functional.
The test system of assay [9] is K562. Briefly: Induction of apoptosis in human K562 cells assessed as cell survival at 1 ug/ml after 8 hrs using annexin-V-FITC and propidium iodide staining by flow cytometry (reference value: 97.89%). The assay is classed as functional. The following applies: K562, 8 h, read-out: Activity.
The test system of assay [10] is K562. Nature of the assay: Induction of apoptosis in human K562 cells assessed as cell survival at 1 ug/ml after 5 hrs using annexin-V-FITC and propidium iodide staining by flow cytometry (reference value: 97.96%). It counts as functional. The following applies: K562, 5 h, read-out: Activity.
Assay [11] concerns K562. Nature of the assay: Induction of apoptosis in human K562 cells assessed as viable cells at 2 ug/ml using annexin-V-FITC and propidium iodide staining by flow cytometry (reference value: 93.69%). It counts as functional, cell-based. The following applies: TDE = time-dependent effect.
In assay [12] the test system is K562. Briefly: Induction of apoptosis in human K562 cells assessed as cell survival at 0.25 ug/ml after 5 hrs using annexin-V-FITC and propidium iodide staining by flow cytometry (reference value: 97.96%). It counts as functional. The following applies: K562, 5 h, read-out: Activity.
The subject of assay [13] is K562. Nature of the assay: Induction of apoptosis in human K562 cells assessed as cell survival at 1 ug/ml after 6 hrs using annexin-V-FITC and propidium iodide staining by flow cytometry (reference value: 97.89%). It counts as functional. The note with it: K562, 6 h, read-out: Activity.
Assay [14] concerns K562. Briefly: Induction of apoptosis in human K562 cells assessed as […] of Bcl-2 at 2 ug/ml after 4 hrs by Western blot analysis. The assay is classed as functional, cell-based. For orientation: In western blotting, separated proteins are transferred to a membrane and probed.
Assay [15] relates to Staphylococcus aureus. Nature of the assay: Antimicrobial activity against methicillin-resistant Staphylococcus aureus. The assay is classed as functional.
The test system of assay [16] is K562. Nature of the assay: Induction of apoptosis in human K562 cells assessed as cell survival at 2 ug/ml after 5 hrs using annexin-V-FITC and propidium iodide staining by flow cytometry (reference value: 97.96%). It counts as functional. The following applies: K562, 5 h, read-out: Activity.
The subject of assay [17] is Staphylococcus aureus. Briefly: Antimicrobial activity against Staphylococcus aureus ATCC 6538. The assay is classed as functional.
Assay [18] has as its system K562. Briefly: Induction of apoptosis in human K562 cells assessed as viable cells at 2 ug/ml after 3 hrs using annexin-V-FITC and propidium iodide staining by flow cytometry (reference value: 93.69%). The assay is classed as functional. The following applies: K562, 3 h, read-out: Activity.
A further assay deals with Bacillus subtilis. Nature of the assay: Antimicrobial activity against Bacillus subtilis ATCC 6051. The assay is classed as functional.
The subject of assay [19] is K562. Briefly: Induction of apoptosis in human K562 cells assessed as effect on Bcl-XL expression at 2 ug/ml after 4 hrs by Western blot analysis. The assay is classed as functional, cell-based.
The subject of a further assay is Pseudomonas aeruginosa. Briefly: Antimicrobial activity against Pseudomonas aeruginosa PAO1. It counts as functional.
The test system of assay [20] is K562. Nature of the assay: Induction of apoptosis in human K562 cells assessed as viable cells at 0.75 ug/ml after 5 hrs using annexin-V-FITC and propidium iodide staining by flow cytometry (reference value: 99.86%). The assay is classed as functional. The note with it: K562, 5 h, read-out: Activity.
In assay [21] the test system is K562. Nature of the assay: Induction of apoptosis in human K562 cells assessed as down regulation of c-Myc at 2 ug/ml after 3 hrs by Western blot analysis. The assay is classed as functional, cell-based.
The test system of another assay is Candida albicans. Nature of the assay: Antimicrobial activity against Candida albicans SC5314. The assay is classed as functional.
In assay [22] the test system is K562. Briefly: Induction of apoptosis in human K562 cells assessed as viable cells at 0.5 ug/ml after 5 hrs using annexin-V-FITC and propidium iodide staining by flow cytometry (reference value: 99.86%). It counts as functional. The following applies: K562, 5 h, read-out: Activity.
The subject of assay [23] is K562. Nature of the assay: Induction of apoptosis in human K562 cells assessed as cell survival at 1 ug/ml after 2 hrs using annexin-V-FITC and propidium iodide staining by flow cytometry (reference value: 97.89%). The assay is classed as functional. The note with it: K562, 2 h, read-out: Activity.
Assay [24] concerns K562. Briefly: Induction of apoptosis in human K562 cells assessed as cell survival at 0.75 ug/ml after 5 hrs using annexin-V-FITC and propidium iodide staining by flow cytometry (reference value: 97.96%). The assay is classed as functional. The following applies: K562, 5 h, read-out: Activity.
In assay [25] the test system is K562. Briefly: Induction of apoptosis in human K562 cells assessed as viable cells at 4 ug/ml after 5 hrs using annexin-V-FITC and propidium iodide staining by flow cytometry (reference value: 99.86%). The assay is classed as functional. The following applies: K562, 5 h, read-out: Activity.

In the assay on HepG2, `COc1cc([C@@H]2c3cc4c(cc3[C@@H](O[C@@H]3O[C@@H]5CO[C@@H](C)O[C@H]5[C@H](O)[C@H]3O)[C@H]3COC(=O)[C@H]23)OCO4)cc(OC)c1O` [ETOPOSIDE] yielded an IC50 of 6.41 µM.
For the molecule `CC(C)=C[C@H]1C[C@H](C)[C@]2(CC[C@]3(C)C[C@@H]4C(C)=CC(=O)[C@]4(O)/C(C=O)=C\C[C@H]32)O1`, the results for the Activity result in the assay with K562 [1] and with K562 [11] were “Dose-dependent effect” and “tde”, respectively. Further, the figures for the IC50 with K562 [2] and in the assay on HepG2 were 4.06 µM and 6.49 µM, respectively. In addition, the viability at 1 µg/mL in the assay with K562 [3] is 91.3%; with K562 [5] it was 56%; in the assay on K562 [6], 49.6%; with K562 [9], 5.86%; with K562 [10] it was 50.2%; in the assay on K562 [13], 27.5%. In addition, in the assay with K562 [23], the viability at 1 µg/mL was 69.7%. Also, the viability at 0.5 µg/mL turned out to be 88.3% in the assay on K562 [4] and 87.5% in the assay with K562 [22]. The viability at 4 µg/mL is 2.45% in the assay on K562 [7] and 1.78% in the assay with K562 [25]. The viability at 2 µg/mL in the assay with K562 [8] was determined as 25.9%; with K562 [16], 26.9%; with K562 [18], 32.6%. Besides, the viability at 0.25 µg/mL in the assay on K562 [12] was found to be 96.6%. The outcome with K562 [14] and with K562 [21] was Active. Moreover, the MIC with Staphylococcus aureus [15] is 12.5 µg/mL (≈ 31.4 µM); against Staphylococcus aureus [17], 12.5 µg/mL (≈ 31.4 µM); against Bacillus subtilis, 12.5 µg/mL (≈ 31.4 µM); against Pseudomonas aeruginosa it was greater than 100 µg/mL; against Candida albicans it was 50 µg/mL (≈ 125 µM). Moreover, the outcome in the assay with K562 [19] was inactive. The viability at 0.75 µg/mL was found to be 62.8% with K562 [20] and 61.5% in the assay on K562 [24].
Regarding `CC(C)=C[C@H]1C[C@H](C)[C@]2(CC[C@]3(C)C[C@@H]4C(C)=CC(=O)[C@H]4/C(C=O)=C\C[C@H]32)O1` [3-ANHYDRO-6-EPI-OPHIOBOLIN A], the IC50 in the assay on K562 [2] worked out at 35.6 µM; in the assay on HepG2 it was 47.1 µM. Besides, the MIC with Staphylococcus aureus [15], against Staphylococcus aureus [17], in the assay with Bacillus subtilis, against Pseudomonas aeruginosa and against Candida albicans was greater than 100 µg/mL in each case.
On to `CC(C)=C[C@H]1C[C@H](C)[C@]2(CC[C@]3(C)C[C@@H]4C(C)=CC(=O)[C@@H]4/C(C=O)=C\C[C@H]32)O1`, for which the results for the half-inhibitory concentration (IC50) with K562 [2] and in the assay on HepG2 were 39.5 µM and 55.7 µM, respectively. For the same molecule, the MIC in the assay on Staphylococcus aureus [15], against Staphylococcus aureus [17], against Bacillus subtilis, against Pseudomonas aeruginosa and against Candida albicans was greater than 100 µg/mL each time.
In the case of `CN[C@H](CC(C)C)C(=O)N[C@H]1C(=O)N[C@@H](CC(N)=O)C(=O)N[C@H]2C(=O)N[C@H]3C(=O)N[C@H](C(=O)N[C@H](C(=O)O)c4cc(O)cc(O)c4-c4cc3ccc4O)[C@H](O)c3ccc(c(Cl)c3)Oc3cc2cc(c3O[C@@H]2O[C@H](CO)[C@@H](O)[C@H](O)[C@H]2O[C@H]2C[C@](C)(N)[C@H](O)[C@H](C)O2)Oc2ccc(cc2Cl)[C@H]1O` [VANCOMYCIN], in the assay on Bacillus subtilis, the MIC was found to be 0.5 µg/mL (≈ 0.345 µM).
In the assay with Pseudomonas aeruginosa, `O=C(O)c1cn(C2CC2)c2cc(N3CCNCC3)c(F)cc2c1=O` [CIPROFLOXACIN] gave an MIC of 1 µg/mL (≈ 3.02 µM).
`CC(=O)N1CCN(c2ccc(OCC3COC(Cn4ccnc4)(c4ccc(Cl)cc4Cl)O3)cc2)CC1` (configuration not stated) [KETOCONAZOLE] yielded a minimum inhibitory concentration (MIC) in the assay on Candida albicans of 0.02 µg/mL (≈ 0.0376 µM).
